Reference: patent US4359473A, “α-Amino deoxy clavulanic acid antibacterial agents” (priority 1977, dated 1982)

Tests used:
[1] = tested on: staphylococcus aureus Russell; assay: Effectiveness as anti-bacterial, mice infected with Staphylococcus aureus Russell (thigh lesion); assay type: in vivo; settings: for Protection (%): subcutaneous at 1, 3 and 5 hours post infection
Method: Mice were infected with staphylococcus aureus Russell (thigh lesion with 0.2 ml im) and thereafter were dosed subcutaneously at 1, 3 and 5 hours post infection with a solution of the test compound.

E. Coli E96 = assay: Subcutaneous synergistic activity with amoxycillin, intraperitoneal mouse infection, E. Coli E96; assay type: in vivo
Source text: (§1) 9-N-Isobutylaminodeoxyclavulanic acid and 9-N-n-butylaminodeoxyclavulanic acid have been compared as synergists in vivo by the subcutaneous route against 2 strains of RTEM E. Coli in intraperitoneal mouse infections.
(§2) Comparative subcutaneous synergistic activity of 9-N-Isobutylaminodeoxyclavulanic acid and 9-N-n-butylaminodeoxyclavulanic acid with amoxycillin against mouse E. Coli infections

E. Coli E124 = assay: Subcutaneous synergistic activity with amoxycillin, intraperitoneal mouse infection, E. Coli E124; assay type: in vivo
Source text: as §1, §2

E. coli JT 39 [2] = assay: Effectiveness as synergist with amoxycillin, peritoneal infection due to E. coli JT 39 (Demonstration 2); assay type: in vivo; settings: for ED50: Escherichia coli, JT39, sc, Test 1, alone, sub-cutaneous 1 and 5 hours post infection, read-out: CD50 (approximate), compound alone
E. coli JT 39 [3] = assay: In-vivo synergistic effect with amoxycillin in mice infected by E. coli JT 39
Method: This microorganism produces considerable quantities of a β-lactamase which degrades amoxycillin so reducing its antibaceterial effectiveness in-vivo.
(Sodium amoxycillin was prepared by dissolving amoxycillin trihydrate in
sodium carbonate/sodium bicarbonate buffer).

Aqueous solubility = assay type: physicochemical
[4] = tested on: β-lactamase producing strains of gram-negative and gram-positive bacteria; assay: Synergistic/antibacterial activity in-vivo, general statement; settings: with penicillins and cephalosporins
in vivo = settings: mouse, ip
LD50 in mice = settings: mouse, in vivo, sc

Compound: COc1ccc(CNC/C=C2\O[C@@H]3CC(=O)N3[C@H]2C(=O)O)cc1 [Example 7, 9-N-(4-Methoxybenzyl)aminodeoxyclavulanic acid]
- Protection (%) ([1]; 5 mg/kg): 28.0%
- Protection (%) ([1]; 10 mg/kg): 80.8%
- Protection (%) ([1]; 20 mg/kg): 87.6%

Compound: CC1(C)S[C@@H]2[C@H](NC(=O)[C@H](N)c3ccc(O)cc3)C(=O)N2[C@H]1C(=O)O [Amoxycillin]
- CD50, amoxycillin alone (E. Coli E96; E. Coli E96, P409, alone): > 1000 mg/kg × 2
- ED50 (E. Coli E96; Escherichia coli, sc, E. Coli E96, P392, alone, read-out: CD50, amoxycillin alone): > 1000 mg/kg
- CD50, amoxycillin alone (E. Coli E124; E. Coli E124, P412): > 1000 mg/kg × 2
- ED50 (E. Coli E124; Escherichia coli, sc, E. Coli E124, P397, alone, read-out: CD50, amoxycillin alone): > 1000 mg/kg
- ED50 (E. coli JT 39 [2]): 1000 mg/kg
- CD50 (approximate), compound alone (E. coli JT 39 [2]; Test 2, sub-cutaneous 1 and 5 hours post infection): 1000 mg/kg × 2
- CD50 (approximate), compound alone (E. coli JT 39 [2]; Test 3, sub-cutaneous 1 and 5 hours post infection): 1000 mg/kg × 2

Compound: Cc1nnc(SCC2=C(C(=O)O)N3C(=O)[C@@H](NC(=O)Cn4cnnn4)[C@H]3SC2)s1 [Cefazolin, reference compound]
- Protection (%) ([1]; 20 mg/kg): 39.0%
- Protection (%) ([1]; 50 mg/kg): 71.2%
- ED50 (E. coli JT 39 [2]): 10.5 mg/kg

Compound: CC1(C)S[C@@H]2[C@H](NC(=O)[C@H](N)c3ccc(O)cc3)C(=O)N2[C@H]1C(=O)O [Sodium amoxycillin, reference compound]
- ED50 (E. coli JT 39 [3]; Escherichia coli, JT39, sc, sub-cutaneous, mice, alone, read-out: CD50, sodium amoxycillin alone): 200 mg/kg

Compound: CC(C)CNC/C=C1\O[C@@H]2CC(=O)N2[C@H]1C(=O)O [9-N-Isobutylaminodeoxyclavulanic acid]
- relative synergist activity in vivo, 2 strains of RTEM E. Coli (E. Coli E96; subcutaneous route, intraperitoneal mouse infections, both strains (E96, E124)): more active then the n-butylamine
- aqueous solubility (Aqueous solubility): increased aqueous solubility

Compound: O=C(O)[C@H]1/C(=C/CNCc2ccccc2)O[C@@H]2CC(=O)N21 [Example 2, 9-N-Benzylaminodeoxyclavulanic acid]
- synergistic activity in-vivo [4]: particularly good synergistic activity in-vivo
- LD50 (in vivo): > 1000 mg/kg
- protecting amoxycillin from the β-lactamase of E. coli JT 39 in-vivo (E. coli JT 39 [3]; administered orally): less effective per given weight than when administered sub-cutaneously
- toxic effects during these tests (E. coli JT 39 [3]; in-vivo synergy tests, mice): not observed to produce toxic effects
- Protection (%) ([1]; 5 mg/kg): 69.8%
- Protection (%) ([1]; 10 mg/kg): 89.7%
- Protection (%) ([1]; 20 mg/kg): 99.3%
- effectiveness in treating certain infections due to Staphylococcus aureus Russell ([1]; compared with ampicillin, cloxacillin or cefazolin): more effective than ampicillin, cloxacillin or cefazolin
- LD50 (LD50 in mice): > 500 mg/kg

Compound: Cc1onc(-c2ccccc2Cl)c1C(=O)N[C@@H]1C(=O)N2[C@@H]1SC(C)(C)[C@@H]2C(=O)O [Cloxacillin, reference compound]
- Protection (%) ([1]; 20 mg/kg): 61.6%
- Protection (%) ([1]; 50 mg/kg): 91.7%
